Laboratory results taken from patent US20230340498A1, “COMPOSITIONS AND METHODS FOR INDUCIBLE ALTERNATIVE SPLICING REGULATION OF GENE EXPRESSION” (The Children's Hospital of Philadelphia, priority 2020, published 2023).

Assays:
HEK293 cells = assay: RNA-Seq of HEK293 cells treated with LMI070 for LMI070-induced splicing events; assay type: cell-based, Human; settings: HEK293, 25 nM LMI070 for 12 hours
Procedure: Tables 1A-1E provide the genomic locations of candidate LMI070-induced exons and the frequency of events from RNA-Seq datasets. Summarized here are the differentially expressed candidate LMI070-induced splicing positions as identified by RNA-Seq of HEK293 cells treated with either DMSO or LMI070 (25 nM). All candidates shown were manually selected from a bioinformatically generated list of top hits based on their suitability for construction of an exon switching genomic minigene, their exclusivity to the LMI070 condition, and their minimal to undetectable levels in DMSO treated cells. The top 25 rows of each table indicate hits observed exclusively upon LMI070 exposure. The following 22 rows of each table indicate candidates where splicing was enriched but not totally exclusive to LMI070 treatment.
Table 1A provides the GRCh38 genomic positions used to create the splice event-containing genomic minigene, the GRCh38 genomic positions of the pseudoexon created by LMI070-induced splicing, the number of exon-exon junction spanning reads observed with DMSO treatment, and the number of exon-exon junctions spanning reads observed with LMI070 treatment. […]
RNA-Seq Methods. […] Splice junction output by STAR were quantified using a custom R script designed to identify splicing events unique to LMI070 treatment. Top ranking LMI070-exclusive splice events were manually assessed for their applicability to function as a splicing switch. […] Candidate splice events were visually evaluated using the Sashimi plot function available in IGV (Thorvaldsdottir et al., 2013; Katz et al., 2015).
Next, exons that were more sensitive to LMI070 to reduce non-target splice events were sought out. […] Reads obtained from 4 control and 4 LMI070 treated samples were aligned to the genome using the STAR aligner (Dobin & Gingeras, 2015) and splicing events exclusive to the LMI070 treated samples identified (FIGS. 2A and 2F-2N; Table 1). […]

SF3B3-on-eGFP cassette = SF3B3-on-eGFP cassette expression in HEK293 cells; assay type: cell-based, Human; settings: LMI070 vs DMSO
Procedure: Cell culture, transfection, and LMI070/RG7800 treatment. Human embryonic kidney (HEK293) cells (obtained from CHOP Research Vector Core stock) were maintained in DMEM media containing 10% Fetal Bovine Serum (FBS), 1% L-Glutamine and 1% penicillin/streptomycin at 37° C. with 5% CO2. Cells were cultured in 24 well plates and transfected at 80-90% confluence using Lipofectamine 2000 transfection reagent, according to the manufacturer’s protocol. For all experiments, 4 hours after plasmid transfection, cells were treated with LMI070 (MedChemExpress, HY-19620, suspended in DMSO) or RG7800 (MedChemExpress, HY-101792A, suspended in H2O) at the indicated concentrations. Cells were tested for mycoplasma by Research Vector Core. None of the cells used in the study were listed in ICLAC database of commonly misidentified cell lines.
Next, a series of switch-on cassettes were developed from the top 4 LMI070-responsive exons found in the RNA-Seq dataset. […] HEK293 cells were transfected with the candidate cassettes, treated with LMI070, and luciferase activity or eGFP expression determined 24 h later. […] Similarly, eGFP expression was only detected in cells transfected with the SF3B3-on-eGFP cassette in response to LMI070 treatment (FIG. 3D).

CC1(C)CC(Oc2ccc(-c3ccc(-c4cn[nH]c4)cc3O)nn2)CC(C)(C)N1 [LMI070, 5-(1H-Pyrazol-4-yl)-2-(6-((2,2,6,6-tetramethylpiperidin-4-yl)oxy)pyridazin-3-yl)phenol]
events evident in all treated and in one of the control untreated samples (HEK293 cells): 22 | events found exclusively and in all LMI070 treated samples (HEK293 cells): 23 | novel splicing events identified following LMI070 treatment (HEK293 cells; threshold average greater than 5 novel intron splicing events): 45 | eGFP expression from SF3B3-on-eGFP cassette (SF3B3-on-eGFP cassette): only detected
